Experimental data from ChEMBL document CHEMBL1201862, “PubChem BioAssay data set” (2004).
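Cells were grown in 96-well plates and exposed to each compound for 48 hours at five concentrations; endpoints were interpolated linearly between bracketing concentrations, or set to the highest concentration if not reached. Here, GI50 denotes the concentration required for 50% inhibition of growth.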 The source made the active and inactive calls. Rule as the data show it: active = GI50 up to about 1.1 µM and inactive = higher. Non-standard residues stand in square brackets, D forms with d. Residues, ends and D or L forms follow the SMILES beside them. *: point of attachment. Bn2Val = CC(C)[C@@H](C(=O)*)N(Cc1ccccc1)Cc1ccccc1; NMeV = CN[C@H](C(=O)O)C(C)C; X32 = COc1ccc(CN*)c(OC)c1; dNMeA = CN[C@H](C)C(=O)O

What was measured:
Test in all cases: NCI anticancer screen, dose series, 48 h
NCI-H460 = test system: NCI-H460
KM12 = test system: KM12
SF-539 = test system: SF-539
A549 = test system: A549
EKVX = test system: EKVX
HCT-116 = test system: HCT-116
PC-3 = test system: PC-3
UO-31 = test system: UO-31
SF-295 = test system: SF-295
DU-145 = test system: DU-145
SK-MEL-2 = test system: SK-MEL-2
SN12C = test system: SN12C
NCI-H23 = test system: NCI-H23
SNB-19 = test system: SNB-19
Malme-3M = test system: Malme-3M
MCF7 = test system: MCF7
UACC-257 = test system: UACC-257
NCI/ADR-RES = test system: NCI/ADR-RES
HT-29 = test system: HT-29
SR = test system: SR

Measured: GI50

O=C1C2=C(c3ccccc31)C(c1ccccc1)N1C(=O)CSC1=N2 (stereo not given)
inactive: NCI-H460 > 57.1 µM | KM12 > 53.6 µM | SF-539 > 53.7 µM | A549 67.1 µM | EKVX > 55.7 µM | HCT-116 > 56.4 µM | PC-3 34.4 µM | UO-31 34.8 µM | SF-295 41.5 µM | DU-145 52.4 µM | SK-MEL-2 49 µM | SN12C > 53.6 µM | NCI-H23 56.4 µM | SNB-19 55.7 µM | Malme-3M 71.9 µM | MCF7 33.8 µM | UACC-257 > 86.5 µM | NCI/ADR-RES 24 µM | HT-29 43.4 µM | SR 26.4 µM

CC(C)CNC(=O)c1c(NC(=O)c2ccccc2)sc2[nH]c(=O)n(-c3ccccc3)c(=O)c12
inactive: NCI-H460 > 100 µM | KM12 > 100 µM | SF-539 46 µM | A549 > 100 µM | EKVX 70.6 µM | HCT-116 > 86.3 µM | PC-3 > 100 µM | UO-31 > 71.4 µM | SF-295 19.6 µM | DU-145 > 100 µM | SK-MEL-2 27.5 µM | SN12C > 100 µM | NCI-H23 80.5 µM | SNB-19 24 µM | Malme-3M > 82.8 µM | MCF7 > 100 µM | UACC-257 > 100 µM | NCI/ADR-RES > 97.5 µM | HT-29 > 100 µM | SR 49.4 µM

COc1ccc(CNC(=O)[C@@H]2CCCN2C(=O)[C@@H](C)N(C)C(=O)[C@H](C(C)C)N(C)C(=O)[C@@H](NC(=O)[C@H](C(C)C)N(Cc2ccccc2)Cc2ccccc2)C(C)C)c(OC)c1 (Bn2Val-V[NMeV][dNMeA]P-X32)
inactive: NCI-H460 3.52 µM | KM12 2.36 µM | SF-539 2.44 µM | A549 3.77 µM | EKVX 2.69 µM | HCT-116 3.13 µM | PC-3 2.9 µM | UO-31 3.86 µM | SF-295 3.34 µM | DU-145 6.15 µM | SK-MEL-2 1.77 µM | SN12C 1.78 µM | NCI-H23 2.94 µM | SNB-19 3.4 µM | Malme-3M 5.12 µM | MCF7 3.19 µM | UACC-257 3.44 µM | NCI/ADR-RES 2.97 µM | HT-29 1.74 µM | SR 2.15 µM

CC(CCC=O)CCOCc1ccccc1 (stereo not given)
inactive: NCI-H460 > 100 µM | KM12 > 57.1 µM | SF-539 > 100 µM | A549 > 87.5 µM | EKVX > 100 µM | HCT-116 > 95.9 µM | PC-3 > 100 µM | UO-31 > 100 µM | SF-295 > 100 µM | DU-145 > 100 µM | SK-MEL-2 > 100 µM | SN12C > 100 µM | NCI-H23 67.3 µM | SNB-19 > 100 µM | Malme-3M > 100 µM | MCF7 2.8 µM | UACC-257 36.5 µM | NCI/ADR-RES > 100 µM | HT-29 > 100 µM | SR > 54.5 µM

COc1ccc2nc(NC(=O)/C(C#N)=C/c3ccccc3)sc2c1
inactive: NCI-H460 38 µM | KM12 > 41.7 µM | SF-539 27.7 µM | A549 59.4 µM | EKVX 38.4 µM | HCT-116 24.7 µM | PC-3 > 61 µM | UO-31 36.8 µM | SF-295 55.6 µM | DU-145 > 52.6 µM | SK-MEL-2 > 100 µM | SN12C 40.6 µM | NCI-H23 > 67.3 µM | SNB-19 > 100 µM | Malme-3M > 49 µM | MCF7 36.2 µM | UACC-257 27 µM | NCI/ADR-RES > 39 µM | HT-29 46.7 µM | SR 4.43 µM

COc1ccc(C2=NN(C(=N)S)C(c3ccccc3)C2)cc1 (stereo not given)
inactive: NCI-H460 30 µM | KM12 35.7 µM | SF-539 61.5 µM | A549 34.8 µM | EKVX 35.9 µM | HCT-116 31.5 µM | PC-3 34 µM | UO-31 43.4 µM | SF-295 30.3 µM | DU-145 53.6 µM | SK-MEL-2 29.4 µM | SN12C 39.3 µM | NCI-H23 34 µM | SNB-19 51.8 µM | Malme-3M 30.5 µM | MCF7 22.5 µM | UACC-257 29.2 µM | NCI/ADR-RES 34.5 µM | HT-29 38.9 µM | SR 23.2 µM

O=C(O)CCO/N=C1/C(=C2/C(=O)Nc3ccccc32)Nc2ccccc21
inactive: NCI-H460 17.6 µM | KM12 1.16 µM | SF-539 38.3 µM | A549 22.5 µM | EKVX 11.2 µM | HCT-116 12.3 µM | PC-3 25.4 µM | UO-31 12 µM | SF-295 35.1 µM | DU-145 17.2 µM | SK-MEL-2 7.18 µM | SN12C 23.7 µM | NCI-H23 17.7 µM | SNB-19 40.5 µM | Malme-3M 54.5 µM | MCF7 23.3 µM | UACC-257 39.5 µM | NCI/ADR-RES 42.2 µM | HT-29 25 µM | SR 12 µM

N#Cc1nc(CCC(C(=O)O)N2C(=O)c3ccccc3C2=O)oc1N (stereo not given)
inactive: NCI-H460 > 100 µM | KM12 > 100 µM | SF-539 > 100 µM | A549 41.7 µM | EKVX > 100 µM | HCT-116 > 10 µM | PC-3 > 100 µM | UO-31 > 100 µM | SF-295 > 100 µM | DU-145 > 100 µM | SK-MEL-2 > 100 µM | SN12C > 100 µM | NCI-H23 > 100 µM | SNB-19 > 100 µM | Malme-3M > 100 µM | MCF7 > 100 µM | UACC-257 > 100 µM | NCI/ADR-RES > 100 µM | HT-29 > 100 µM | SR > 100 µM

CCN=C=NCCCN(C)C
inactive: NCI-H460 > 100 µM | KM12 > 100 µM | SF-539 > 100 µM | A549 > 100 µM | EKVX > 100 µM | HCT-116 > 100 µM | PC-3 > 100 µM | UO-31 > 100 µM | SF-295 > 100 µM | DU-145 > 100 µM | SK-MEL-2 > 100 µM | SN12C > 100 µM | NCI-H23 > 100 µM | SNB-19 > 100 µM | Malme-3M > 100 µM | MCF7 > 100 µM | UACC-257 > 100 µM | NCI/ADR-RES > 100 µM | HT-29 > 100 µM | SR > 100 µM

Nc1ccc(C(=O)CC(N)C(=O)O)cc1O (stereo not given)
inactive: NCI-H460 > 100 µM | KM12 > 100 µM | SF-539 > 100 µM | A549 > 100 µM | EKVX > 100 µM | HCT-116 > 100 µM | PC-3 > 100 µM | UO-31 > 100 µM | SF-295 > 100 µM | DU-145 > 100 µM | SK-MEL-2 > 100 µM | SN12C > 100 µM | NCI-H23 > 100 µM | SNB-19 > 100 µM | Malme-3M > 100 µM | MCF7 > 100 µM | UACC-257 > 100 µM | NCI/ADR-RES > 100 µM | HT-29 > 100 µM | SR > 100 µM
